A short description of this data set: Powder dissolution. Type of data set: physicochemical. The settings on record: compared to commercially available progesterone.

This is an account of results in patent publication US9982007B2, “Cocrystals of progesterone” (AMRI SSCI, LLC, priority 2012, dated 2018).

For the substance “progesterone:vanillic acid [Cocrystal 1]”, the dissolution rate entry is on record as “increase in dissolution rate” and the “progesterone concentration over time” value is on record as “sustained progesterone concentration over time”.
